Experimental data published in patent US9562060B2, “Heterocyclic pyridone compound, and intermediate, preparation method and use thereof” (SHANGHAI HUILUN LIFE SCIENCE & TECHNOLOGY CO., LTD, priority 2011, dated 2017).
Read-outs that look alike come from different tables or passages of the source.

What was measured:
[1] = molecular target: T1, c-Met kinase (Homo sapiens, UniProt P08581); assay: Inhibitory activity of compound to c-Met kinases (Z'-LYTE kinase assay kit); type: biochemical; settings: Tyr 6 substrate peptide, read-out: Strength of activity (inhibition on c-Met kinase, IC50)
T1 construct: purchased Invitrogen PV3143
T1 sequence (P08581 25-1390): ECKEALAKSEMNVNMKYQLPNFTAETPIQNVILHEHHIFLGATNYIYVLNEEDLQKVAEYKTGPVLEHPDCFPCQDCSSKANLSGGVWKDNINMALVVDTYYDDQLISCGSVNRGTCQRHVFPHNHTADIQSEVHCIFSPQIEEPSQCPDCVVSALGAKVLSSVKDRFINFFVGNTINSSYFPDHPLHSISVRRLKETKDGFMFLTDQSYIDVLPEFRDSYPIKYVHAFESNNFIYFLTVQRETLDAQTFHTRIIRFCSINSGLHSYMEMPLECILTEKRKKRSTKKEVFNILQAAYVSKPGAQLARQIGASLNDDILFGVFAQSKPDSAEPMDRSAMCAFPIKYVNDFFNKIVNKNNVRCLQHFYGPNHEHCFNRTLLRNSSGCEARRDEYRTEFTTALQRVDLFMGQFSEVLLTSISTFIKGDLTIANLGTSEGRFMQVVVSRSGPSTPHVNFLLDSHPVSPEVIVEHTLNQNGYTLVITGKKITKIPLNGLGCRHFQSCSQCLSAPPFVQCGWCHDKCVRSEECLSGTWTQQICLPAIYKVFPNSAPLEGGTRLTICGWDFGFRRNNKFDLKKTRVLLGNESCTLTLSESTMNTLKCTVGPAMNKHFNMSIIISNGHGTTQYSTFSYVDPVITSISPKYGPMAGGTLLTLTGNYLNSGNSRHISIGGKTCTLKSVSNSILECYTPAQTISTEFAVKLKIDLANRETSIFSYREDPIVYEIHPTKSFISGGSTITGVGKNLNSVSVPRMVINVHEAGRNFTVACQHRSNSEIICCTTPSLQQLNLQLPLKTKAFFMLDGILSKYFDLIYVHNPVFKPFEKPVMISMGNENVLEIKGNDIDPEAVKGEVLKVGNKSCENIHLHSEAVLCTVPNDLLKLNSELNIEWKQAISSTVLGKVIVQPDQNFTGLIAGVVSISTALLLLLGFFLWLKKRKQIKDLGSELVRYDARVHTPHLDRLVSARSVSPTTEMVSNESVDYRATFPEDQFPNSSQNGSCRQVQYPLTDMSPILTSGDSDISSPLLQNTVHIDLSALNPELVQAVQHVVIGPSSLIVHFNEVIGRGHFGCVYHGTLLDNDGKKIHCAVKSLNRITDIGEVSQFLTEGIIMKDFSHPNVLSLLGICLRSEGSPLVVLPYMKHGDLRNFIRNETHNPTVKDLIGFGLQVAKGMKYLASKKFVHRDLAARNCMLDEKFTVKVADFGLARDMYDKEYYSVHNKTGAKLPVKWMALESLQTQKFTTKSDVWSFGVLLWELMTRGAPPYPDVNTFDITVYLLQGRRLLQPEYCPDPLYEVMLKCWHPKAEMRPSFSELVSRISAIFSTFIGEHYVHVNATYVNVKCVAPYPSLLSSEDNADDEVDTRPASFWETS
Description: The inhibitory activity of the compound to c-Met kinases in vitro is determined through the following method.
The method described below can be used to determine the inhibiting capacity of the compound of the present invention on the c-Met kinase activity, and the inhibiting capacity is represented by IC50. The half inhibitory concentration IC50 (a concentration of the compound for inhibiting the enzyme activity to 50%) of the compound is obtained by: mixing and reacting a certain amount of kinase with a specific substrate and different concentrations of test compound, and then labeling the substrate with an anti-phosphotyrosine antibody and a […], and finally quantitatively determining the c-Met kinase activity through a time-resolved fluorescence method.
The specific experiment is implemented by using a Z′-LYTE kinase assay kit (Invitrogen, item PV4122). First, the test compound is diluted into 8 different concentrations from 100 μM at an interval of 1:5 with an ATP solution (Invitrogen, item PV3227); 5 μL 2×c-Met (Invitrogen, item PV3143) and 2×Z′-LYTE Tyr 6 substrate peptide are respectively taken up, and added to a 384-well microtiter plate, 5 μL diluted different concentrations of test compound are added in sequence, and the lid is closed. The microtiter plate is incubated for 60 min at room temperature (20° C. to 25° C.); and then 5 μL […] is added, and the lid is closed. The microtiter plate is incubated for 60 min at room temperature (20° C. to 25° C.); and then 5 μL termination reagent is added to the reaction well, to terminate the reaction. Finally, the fluorescence intensity (OD400) of each well is determined in a fluorescence analyzer (excitation wavelength: 400 nm). The inhibition rate is calculated, and the half inhibitory concentration (IC50) of the compound is calculated according to the inhibition rates of different concentrations.
For a negative control group, except that test compound (replaced by 5 μL ATP solution) is not added, all the other reagents are added. In addition, an enzyme-free control group (that is, blank group) is set.

[2] = test system: Human gastric cancer cell SNU-5; assay: Inhibition of in vitro proliferation of human gastric cancer cell SNU-5 (SRB); type: cell-based; settings: SNU-5 cells, 72-hr agent treatment, read-out: Strength of activity (inhibition on SNU-5, IC50)
Description: Human gastric cancer cells SNU-5 are cultured in an IMDM medium containing 20% fetal bovine serum, and the culture conditions are 37° C. and 5% CO2. Tumor cells are inoculated in a 96-well plate, and after 24-hr sidewall growth, 9 different concentrations of (1 to 30000 nM) an agent are added, after 72-hr agent treatment, the medium is discarded, the cells are fixed by cold trichloroacetic acid, and then dyed with a sulforhodamine B (SRB) solution. Unbound SRB is washed off, and SRB bound with protein was dissolved with Tris, the OD is determined at a wavelength of 510 nm by a microplate reader, and the cell growth inhibition rate is calculated according to the following equation: Inhibition rate=(OD of control well-OD of administered well)/OD of control well×100%
According to the inhibition rates of different concentrations, the half inhibitory concentration IC50 is calculated by using a Logit method.

[3] = test system: human malignant glioma U87-MG xenografts; assay: Efficacy on human malignant glioma U87-MG xenografts in nude mice; type: in vivo, BALB/cA-nude nude mice; settings: 100 mg/kg orally once per day for 16 days
Description: The human malignant glioma U87-MG is purchased from ATCC (American Type Culture Collection), America.
BALB/cA-nude nude mice (♀, 6-7 weeks old) are purchased from Shanghai SLAC Laboratory Animal Co. Ltd. Breeding environment: SPF grade.
In vitro-cultured malignant glioma U87-MG cells are inoculated subcutaneously in nude mice, and after the tumor grows to a size of 100 to 250 mm^3, the animals are randomly divided into groups (d0). The dose of the test agent is 100 mg/kg, and the agent is orally administered once per day for continuous 16 days. The volume of the tumor is measured two to three times per week, the mice are weighed, and the data is recorded. The tumor volume (V) is calculated according to the equation: V=1/2×a×b^2, where a and b respectively represent length and width.
The antineoplastic efficacy is evaluated according to tumor inhibition rate, and the tumor inhibition rate is calculated according to the equation below: Tumor inhibition rate=1−(T−T0)/(C−C0), • where T and C are respectively tumor volumes of the test agent group mice and the blank group mice at the end of the experiment; and T0 and C0 are tumor volumes at the start of the experiment.

| IC50 [1] [nM] | IC50 ([2]; Homo sapiens) [nM] | IC50 [2] [nM] | SMILES | Tumor Inhibition Rate (%) [3] [%] |
| --- | --- | --- | --- | --- |
| 10 to 100 | 100 to 500 |  | COc1ccc2c(Oc3ccc(NC(=O)c4cc5ncsc5n(-c5ccc(F)cc5)c4=O)cc3F)ccnc2c1 [Embodiment 3] | 91 |
| < 10 |  | < 100 | COc1cc2c(Oc3ccc(NC(=O)c4cc5ncsc5n(-c5ccc(F)cc5)c4=O)cc3F)ccnc2cc1OCCCN1CCOCC1 [Embodiment 5] | 74 |

Further lines, the compound ahead of its results:

| SMILES | IC50 [1] [nM] | IC50 ([2]; Homo sapiens) [nM] | IC50 [2] [nM] | Tumor Inhibition Rate (%) [3] [%] |
| --- | --- | --- | --- | --- |
| Nc1cc(Oc2ccc(NC(=O)c3cc4ncsc4n(-c4ccc(F)cc4)c3=O)cc2F)ccn1 [Embodiment 1] | 10 to 100 | < 100 |  | 62 |
| Nc1nccc(Oc2ccc(NC(=O)c3cc4ncsc4n(-c4ccc(F)cc4)c3=O)cc2F)c1Cl [Embodiment 2] | < 10 | 100 to 500 |  | 16 |
| O=C(Nc1ccc(Oc2ccnc3[nH]ccc23)c(F)c1)c1cc2ncsc2n(-c2ccc(F)cc2)c1=O [Embodiment 4] | < 10 |  | 100 to 500 | 26 |
